Data set [1] deals with human xenograft model of metastatic bone disease from prostate cancer. Kind of data set: tracer distribution and 41Ca release from pre-labeled bones in human xenograft model of metastatic bone disease. In kind it is in vivo, nude mice. The text has this:
However, the ultimate value of these techniques for individual patients is uncertain, due (in part) to high natural variability of biomarkers in urine and serum (Kannis J A, McCloskey E V. Bone turnover and biochemical markers in malignancy. Cancer. 1997; 80:1538-45). Applicants believe that labeling the human skeleton with a ^41Ca tracer and monitoring urinary tracer abundance will provide a non-invasive, highly sensitive, clinically useful measure of bone turnover. The longest half-life isotope of calcium, ^41Ca, provides a sensitive method for tracking short and long-term bone turnover parameters. Due to extremely low natural abundance (<10^−15), a single sub-physiological ^41Ca dose (less than 1 ug=4 kBq=0.1 uCi) remains quantifiable via accelerator mass spectrometry (AMS) in blood and urine for many years: this longevity within the body's primary calcium pool makes ^41Ca variation specific to bone turnover (Weaver C M. Use of calcium tracers and biomarkers to determine calcium kinetics and bone turnover. Bone. 1998; 22(5):103S-104S). […]
^41Ca remains quantifiable via accelerator mass spectrometry (AMS) in human urine and blood for many years following a single chemically and radiologically benign oral or intravenous dose; this longevity makes urinary ^41Ca content very specific to bone turnover. […]

The nature of data set [2]: urinary 41Ca/Ca variability in monthly urine samples after oral 41Ca dose. In kind it is in vivo. The conditions noted are these: days 500 to 700 after 1.2 ng oral 41Ca dose, six human volunteers. The text has this: ^41Ca remains quantifiable via accelerator mass spectrometry (AMS) in human urine and blood for many years following a single chemically and radiologically benign oral or intravenous dose; this longevity makes urinary ^41Ca content very specific to bone turnover. […] Applicants also measured tracer distribution and increased ^41Ca release from pre-labeled bones in a human xenograft model of metastatic bone disease from prostate cancer. […] Low natural variability of urinary ^41Ca/Ca in humans will enable a non-invasive, highly sensitive clinical measure of bone turnover perturbations from metastatic bone disease.

The conditions of data set [3]: cited from earlier work.

The structures appear in SMILES notation.

As for `[41Ca]` [^41Ca, radioactive calcium isotope ^41Ca], the tracer distribution entry in data set [1] (human xenograft tumor model in nude mice) is recorded as “preferentially labels bone”. Moreover, the “serum 41Ca/Ca correlation with disease measures” value in data set [1] (serum, pre-labeled bones, xenograft model of prostate cancer bone metastasis) was “positively correlating with tumor size, skeletal disruption, serum tumor markers, and degree of hypercalcemia”. The “41Ca/Ca scatter about individual linear fits” value in data set [2] worked out at 5±3%. In addition, in data set [3] (ingested), the “lifetime radioactive exposure from ingested dose” value is on record as less than 2e-10 Sv/Bq. In addition, the “lifetime radioactive exposure from injected dose” value in data set [3] (injected) is given as less than 7e-10 Sv/Bq.

Values taken from patent US8388930B2, “Diagnosis and assessment of skeletal related disease using calcium 41” (Lawrence LIvermore National Security, LLC, priority 2004, dated 2013).
